Consider two compounds from PMC11728142, “A Tachyplesin Antimicrobial Peptide from Theraphosidae Spiders with Potent Antifungal Activity Against Cryptococcus neoformans” (Microorganisms, 2024).

Series [1] concerns trypsin. As to conditions: peptide 1 mg/mL, peptide:enzyme 250:1, 5 mM CaCl2, 50 mM Tris-HCl pH 7.4, 37 °C, time points 0 to 12 h, SDS-PAGE bands. On the procedure: (§1) The mixture was heated for 10 min at 95 °C to halt enzymatic reaction. A solution of 20 µL of the SDS-PAGE loading buffer (5×) was added to 80 µL of the sample, mixed by vortexing and heated for 5 min at 95 °C. SDS-PAGE analysis was performed using Omni-PAGE™Precast HEPES-Tris Gels. LL37 and colistin antibiotics were used as controls.

Series [2] relates to chymotrypsin. As to conditions: peptide 1 mg/mL, peptide:enzyme 250:1, 5 mM CaCl2, 50 mM Tris-HCl pH 7.4, 37 °C, time points 0 to 12 h, SDS-PAGE bands. On the procedure:
as §1

In series [3] the test system is Cryptococcus neoformans_ATCC32045. Put plainly: microbe, parasite or virus in culture. On the procedure: (§2) To achieve a final cell concentration of 2 × 10^6 CFU/mL, mid-log phase cultures were diluted with a Yeast and Mold (YM) broth and then put to 96-well plates with two-fold serially diluted peptides (from 0.1 to 89.8 µM) in a 1:1 ratio.
Series [4] concerns Candida albicans_ATCC10231. Briefly: microbe, parasite or virus in culture. The method, then: as §2
Series [5] has as its system Cryptococcus neoformans_BNCC225501. Briefly: microbe, parasite or virus in culture. The method, then: as §2
Series [6] has as its system Candida auris_84. Put plainly: microbe, parasite or virus in culture. On the procedure: as §2
The test system of series [7] is Candida auris_55. Put plainly: microbe, parasite or virus in culture. On the procedure: as §2
[8] abbreviates: broth microdilution, YM broth, 2 × 10^6 CFU/mL, 24 h at 37 °C, lowest concentration that fully inhibited growth.

The structures appear in SMILES notation. ≈ marks a conversion by molar mass, not a printed value. Residues, ends and D or L forms follow the SMILES beside them. Some results are limits rather than exact numbers.

As for `CC(C)[C@H](NC(=O)[C@H](CCCCN)NC(=O)[C@H](Cc1ccccc1)NC(=O)[C@H](CS)NC(=O)[C@@H](N)CCC(N)=O)C(=O)N[C@@H](CS)C(=O)N[C@@H](Cc1ccccc1)C(=O)N[C@@H](CCCNC(=N)N)C(=O)N[C@@H](CCCCN)C(=O)N[C@@H](CCCNC(=N)N)C(=O)N[C@@H](CS)C(=O)N[C@@H](Cc1ccccc1)C(=O)N[C@H](C(=O)N[C@@H](CCCCN)C(=O)N[C@@H](CS)C(=O)N[C@@H](CO)C(=O)N[C@@H](CCCNC(=N)N)C(=O)N[C@@H](CO)C(=O)O)[C@@H](C)O` [QS18red] (H-QCFKVCFRKRCFTKCSRS-OH), the “proteolytic stability with trypsin” value in series [1] is given as “no bands observed even at t = 0 min”. Besides, the “proteolytic stability with chymotrypsin” value in series [2] is recorded as “faint initial band that disappeared after 15 min”. The MIC in series [3] (setting [8]) is ≥ 89.8 µM; in series [4] (setting [8]), > 89.8 µM; in series [5] (setting [8]) it was 89.8 µM (≈ 200 µg/mL); in series [6] (setting [8]), 44.9 µM (≈ 100 µg/mL); in series [7] (setting [8]), > 89.8 µM.

For `C[C@@H]1[C@H](O)[C@@H](C)/C=C/C=C/C=C/C=C/C=C/C=C/C=C/[C@H](O[C@@H]2O[C@H](C)[C@@H](O)[C@H](N)[C@@H]2O)C[C@@H]2O[C@](O)(C[C@@H](O)C[C@@H](O)[C@H](O)CC[C@@H](O)C[C@@H](O)CC(=O)O[C@H]1C)C[C@H](O)[C@H]2C(=O)O` [Amphotericin B, amphotericin B, reference compound], the MIC in series [3] (Cryptococcus, 24 h) was 3.4 µM (≈ 3.14 µg/mL); in series [4] (Candida, 24 h), ≤ 0.4 µM; in series [5] (Cryptococcus, 24 h), 1.7 µM (≈ 1.57 µg/mL); in series [6] (Candida, 24 h), 0.8 µM (≈ 0.739 µg/mL); in series [7] (Candida, 24 h), 1.7 µM (≈ 1.57 µg/mL).
